In brackets after ≈: the same amount, converted by molar mass. Where a SMILES comes first, the peptide text is derived from it. [ ]: non-standard residue; d: D form. The star is where a group is joined. Leu(ol) = CC(C)C[C@H](N)CO; Octanoyl = CCCCCCCC(=O)*; nOct = not defined here; Aib = CC(C)(N)C(=O)O

By MIC is commonly meant the lowest concentration found to suppress growth.

The subject of assay [1] is Xanthomonas campestris pv. campestris strain RC1. The experiment in a line: Growth inhibition assay against Xcc (OD600). Conditions: LB, 27 °C, 72 h, OD 600 nm, three replicates, two independent experiments.
Assay [2] deals with Xanthomonas campestris pv. campestris. The experiment in a line: MIC and MBC determinations against Xcc. Type of assay: cell-based. Further details: key to Bacteriostatic (MIC) / bactericidal (MBC) activity at 0.5 µM / Bacteriostatic (MIC) / bactericidal (MBC) activity at 1 µM / Bacteriostatic (MIC) / bactericidal (MBC) activity at 3 µM / Bacteriostatic (MIC) / bactericidal (MBC) activity at 2 µM: Dashes (-) indicate the absence of bacteriostatic or bactericidal activity; Minimal Inhibitory Concentration (MIC); Minimal Bactericidal Concentration (MBC); MIC and MBC: Minimal Inhibitory Concentration (MIC) and Minimal Bactericidal Concentration (MBC). The following applies: for MIC: lowest concentration that completely inhibited visible growth, 72 h, tested 3, 2, 1 and 0.5 µM; for Bacteriostatic (MIC) / bactericidal (MBC) activity at 0.5 µM: peptide 0.5 µM; for Bacteriostatic (MIC) / bactericidal (MBC) activity at 1 µM: peptide 1 µM. As to the method: Peptaibols were tested at decreasing concentrations (3, 2, 1 and 0.5 µM). Minimal Bactericidal Concentration (MBC) was determined at the end of the incubation period (72 h) by plating, onto LBA plates, 5 µL samples that were collected from each well with no visible growth.

The mark [3] stands for this setting: 72 h growth inhibition, then plating on LBA 24 h.

On to “nOct-Toac-Gly-Leu-Aib-Gly-Gly-Leu-Aib-Arg-Ile-Lol [Peptide 11]”, for which, in assay [1] (peptide 3 µM), the “Inhibition of Xcc growth in vitro” value is recorded as “did not reduce”.

The compound `CCCCCCCC(=O)NC(C)(C)C(=O)N[C@@H](CCCCN)C(=O)N[C@@H](CC(C)C)C(=O)NC(C)(C)C(=O)N[C@@H](CCCCN)C(=O)N[C@@H](CCCCN)C(=O)N[C@@H](CC(C)C)C(=O)NC(C)(C)C(=O)NCC(=O)N[C@H](C(=O)N[C@H](CO)CC(C)C)[C@@H](C)CC` [Peptide 24] (Octanoyl-[Aib]KL[Aib]KKL[Aib]GI[Leu(ol)]) had a minimum inhibitory concentration (MIC) in assay [2] of 1 µM (≈ 1.28 µg/mL). Also, in assay [2] (setting [3]), the “Bacteriostatic (MIC) / bactericidal (MBC) activity at 0.5 µM” value is on record as “-” and the “Bacteriostatic (MIC) / bactericidal (MBC) activity at 1 µM” value was “MIC”. Moreover, the “Inhibition of Xcc growth in vitro” value in assay [1] (peptide 3 µM) is given as “complete inhibition”. Turning to “nOct-Aib-Gly-Leu-Aib-Lys-Gly-Leu-Aib-Gly-Ile-Lol [Peptide 3]”, the minimum inhibitory concentration (MIC) result in assay [2] is “neither bacteriostatic nor bactericidal activity”. In assay [2] (setting [3]), the “Bacteriostatic (MIC) / bactericidal (MBC) activity at 0.5 µM” value is “-” and the “Bacteriostatic (MIC) / bactericidal (MBC) activity at 1 µM” value is given as “-”. In assay [2] (peptide 2 µM, 72 h growth inhibition, then plating on LBA 24 h), the “Bacteriostatic (MIC) / bactericidal (MBC) activity at 2 µM” value was “-”. The “Bacteriostatic (MIC) / bactericidal (MBC) activity at 3 µM” value in assay [2] (peptide 3 µM, 72 h growth inhibition, then plating on LBA 24 h) was “-”. Besides, in assay [1] (peptide 15 µM), the “Inhibition of Xcc growth in vitro” value was “inactive”.

With “nOct-Aib-Gly-Leu-Aib-Lys-Lys-Leu-Leu-NH2 (nOct-[Aib]GL[Aib]KKLL-NH2; reading uncertain) [Peptide 4c1]”, the “Inhibition of Xcc growth in vitro” value in assay [1] (peptide 15 µM) is listed as “weakly effective”. Regarding “nOct-Aib-Lys-Leu-Aib-Gly-Lys-Leu-Aib-Gly-Ile-Lol [Peptide 7]”, the “Inhibition of Xcc growth in vitro” value in assay [1] (peptide 3 µM) is given as “partial growth inhibition effect”; in assay [1] (peptide 15 µM), “completely inhibit”.

Regarding “nOct-Aib-Gly-Leu-Aib-Gly-Gly-Leu-Api-Ile-Lol [Peptide 8ApiC]”, the “Inhibition of Xcc growth in vitro” value in assay [1] (peptide 3 µM) was “did not reduce”.

Consider “nOct-Aib-Gly-Leu-Aib-Gly-Gly-Leu-Api-Gly-Ile-Lol [Peptide 8]”, for which the “Inhibition of Xcc growth in vitro” value in assay [1] (peptide 3 µM) is “did not reduce”. As to “nOct-Aib-Gly-Leu-Aib-Gly-Lys-Leu-Aib-Gly-Ile-Leu-NH2 [Peptide 22r]”, the “Inhibition of Xcc growth in vitro” value in assay [1] (peptide 15 µM) is reported as “complete inhibition”.

As for “nOct-Aib-Gly-Leu-Aib-Lys-Lys-Leu-Aib-Gly-Ile-Lol [Peptide 4]”, the “Inhibition of Xcc growth in vitro” value in assay [1] (peptide 3 µM) was “did not reduce”. Regarding “nOct-Aib-Lys-Leu-Aib-Gly-Gly-Leu-Aib-Gly-Ile-Leu-NH2 [Peptide 2r]”, the “Inhibition of Xcc growth in vitro” value in assay [1] (peptide 15 µM) is recorded as “complete inhibition”.

As for “nOct-Aib-Lys-Leu-Aib-Lys-Gly-Leu-Aib-Lys-Ile-Lol [Peptide 5]”, the “Inhibition of Xcc growth in vitro” value in assay [1] (peptide 3 µM) is “did not reduce”.

On to “nOct-Aib-Gly-Leu-Aib-Gly-Gly-Leu-Aib-Gly-Ile-Lol [Trichogin GA IV, trichogin GA IV]”, for which the “Inhibition of Xcc growth in vitro” value in assay [1] (peptide 15 µM) is “inactive”. As for “nOct-Aib-Lys-Lys-Leu-Aib-Gly-Ile-Leu-NH2 [Peptide 4c2]”, the “Inhibition of Xcc growth in vitro” value in assay [1] (peptide 15 µM) is reported as “no inhibitory effect”.

On to “nOct-Aib-Lys-Leu-Aib-Lys-Gly-Leu-Aib-Gly-Ile-Lol [Peptide 1]”, for which the “Inhibition of Xcc growth in vitro” value is reported as “complete inhibition” in assay [1] (peptide 3 µM) and “completely inhibit” in assay [1] (peptide 15 µM). With “nOct-Aib-Gly-Leu-Aib-Lys-Aib-Leu-Aib-Gly-Ile-Leu-NH2 [Peptide 6r]”, the “Inhibition of Xcc growth in vitro” value in assay [1] (peptide 15 µM) is “weakly effective”. Consider “nOct-Aib-Gly-Leu-Aib-Gly-Gly-Leu-Aib-Lys-Ile-Lol [Peptide 25]”, for which, in assay [1] (peptide 3 µM), the “Inhibition of Xcc growth in vitro” value is “did not reduce”.

The values are drawn from PMC9967956, “Efficacy of Trichoderma longibrachiatum Trichogin GA IV Peptaibol analogs against the Black Rot Pathogen Xanthomonas campestris pv. campestris and other Phytopathogenic Bacteria” (Microorganisms, 2023).
